Assay results from patent US20260137698A1, “CYCLIN-DEPENDENT KINASE 7 INHIBITORS” (JOINT STOCK COMPANY «BIOCAD», priority 2022, published 2026).
Read-outs that look alike come from different tables or passages of the source.

Assays:
[1] = tested on: MDA-MB-468 (triple negative breast cancer); test: Antiproliferative assay on MDA-MB-468 cells (AlamarBlue, 96 h); assay type: cell-based; conditions: Homo sapiens, mean value from several measurements
[2] = General cytotoxicity on primary differentiated HepaRG cells (72 h); assay type: cell-based; conditions: human, general toxicity, mean value from several measurements
Method in brief: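 Test compounds spanning 200 μM to 0.2 nM were incubated for 72 hours with primary differentiated HepaRG cells. Cells had been kept one week in supplemented hepatic medium and seeded the night before at 25×10^3 per well, and viability was then measured.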

[3] = target: CDK9/Cyclin K (Homo sapiens, UniProt P50750); test: Inhibition of CDK9/Cyclin K kinase activity (ADP-Glo); assay type: biochemical
Method in brief: (§1)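 ADP-Glo luminescence quantified ATP consumption after a 40-60 minute, 25° C. reaction with ATP plus CDKtide, Histone H1 or PDKtide, following a 10-minute compound–kinase preincubation in DTT-supplemented kinase buffer A. Compounds spanned 11 concentrations from 50 μM in 4-fold dilutions; IC50 fitted to a four-parameter model.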

[4] = target: CDK2/Cyclin A (Homo sapiens, UniProt P24941); test: Inhibition of CDK2/Cyclin A kinase activity (ADP-Glo); assay type: biochemical
Method in brief: as §1

[5] = target: CDK7/Cyclin H/MNAT1 (Homo sapiens, UniProt P50613); test: Inhibition of CDK7/Cyclin H/MNAT1 kinase activity (ADP-Glo); assay type: biochemical
Method in brief: as §1

[6] = Passive membrane permeability through PAMPA artificial membrane, pH 7.4; assay type: in vitro ADME; conditions: pH 7.4, 10 μmol, 20 hours at room temperature, mean of multiple measurements, read-out: PAMPA passive permeability Pe
Procedure: Passive membrane permeability of the compounds described in the present invention was determined using the PAMPA (parallel artificial membrane permeability assay) model at pH 7.4.
We used a 96-well plate (Corning® BioCoat® Pre-coated PAMPA Plate System, order no. 353015), composed of acceptor and donor parts with cell membrane-modeling PVDF filter pre-impregnated with a lecithin-phospholipid bilayer. The substance (at a concentration of 10 μmol) in a 0.01 M phosphate buffer with pH 7.4 was introduced into a donor well of the plate, and pure buffer was introduced into an acceptor well; afterwards, the both parts were combined and incubated for 20 hours at room temperature so that the compound was redistributed between the two wells and the membrane. Verapamil (USP, USA, order no. 1711202) and propranolol (MCE LLC, USA, cat. no. HY-B0573/CS-2680) were used as control compounds with high and medium permeability. Samples were analyzed by reversed-phase HPLC with UV detection (Agilent 1260 chromatograph with UV detector) by determining their peak areas in the donor and acceptor wells.
Permeability (Pe, cm/s) and retention factor (R, %) in the lipid bilayer were calculated using the formula:
[formula] [formula] • Co is donor-well concentration of the substance at the initial moment of time t (μM); • CA (t) is acceptor-well concentration of the substance at time t (μM); • Vd is donor-well volume (0.3 ml); • Va is acceptor-well volume (0.15 ml).
[formula] • A is filter area (0.3 cm^2); • t is incubation time (72000 s);

[7] = tested on: NCl-H82 (small cell lung cancer); test: Antiproliferative assay on NCl-H82 cells (AlamarBlue, 120 h); assay type: cell-based; conditions: mean value from several measurements
Procedure: The antiproliferative activity of CDK7 inhibitors according to the present invention was evaluated in a cell test using continuous cell cultures: MDA-MB-468 (triple negative breast cancer, ATCC® HTB-132™) and NCl-H82 (small cell lung cancer, ATCC® HTB-175™) using a viable AlamarBlue dye (Thermo Fisher Scientific Inc, order no. DAL1100). The cells were grown in DMEM (PanEco, order no. C330π) and RPMI-1640 (PanEco, order no. C330π), respectively. The basal growth medium was enriched with L-glutamine at a concentration of 2 mM (PanEco, order no. Φ032) and 10% fetal bovine serum (Gibco, order no. 16140-071). The night before measurement, MDA-MB-468 adherent cells were detached from plastic with a solution of trypsin-EDTA (PanEco, order no. Π039π), the solution was then inactivated by a DMEM complete medium, centrifuged at 1000 RPM (Eppendorf, 5804 R), a suspension of cells was prepared in a DMEM complete medium, introduced into 96-well culture plates (Corning Inc, order no. 3599) at 8×10^3 cells in 100 μl of medium per well. The next day, test compounds were dissolved in DMSO and diluted with a DMEM complete medium to a final concentration ranging from 50 μM to 10 pM. Diluted compounds in a volume of 50 μl were introduced into the plate wells with cells in triplicates (the final concentration of DMSO was no more than 1%) and incubated at 37° C. in an incubator with 5% CO2 for 96 hours. NCl-H82 suspension cell line was prepared on the day of the analysis. 10×10^3 cells in 100 μl of an RPMI-1640 complete medium were added to each well of a 96-well plate. The procedure for sample dilution is as described above. Cells with test compounds were incubated at 37° C. in an incubator with 5% CO2 for 120 hours. Following incubation, […] of AlamarBlue reagent (Thermo Fisher Scientific Inc., order no. DAL1100) was added to the wells, the contents of the plates were stirred in an orbital shaker (Biosan, Latvia), then further incubated for 5.5-6 hours at 37° C. in an incubator with 5% CO2. The number of viable cells was detected using the Infinite M200Pro microplate spectrophotometer (Tecan Group Ltd, Switzerland) by way of measuring a fluorescent signal at an excitation wavelength (λEx) of 540 nm and an emission wavelength (λEm) of 590 nm.
IC50 value was calculated using the Magellan software (Tecan Group Ltd, Switzerland) by approximating experimental points by four-parameter model with the optimization by Levenberg-Marquardt: […]

[8] = mean value from several measurements, read-out: IC50 CDK9/Cyclin K
[9] = mean value from several measurements, read-out: IC50 CDK2/Cyclin A
[10] = mean value from several measurements, read-out: IC50 CDK7/Cyclin H/MNAT

Sequence of CDK9/Cyclin K (P50750 whole entry): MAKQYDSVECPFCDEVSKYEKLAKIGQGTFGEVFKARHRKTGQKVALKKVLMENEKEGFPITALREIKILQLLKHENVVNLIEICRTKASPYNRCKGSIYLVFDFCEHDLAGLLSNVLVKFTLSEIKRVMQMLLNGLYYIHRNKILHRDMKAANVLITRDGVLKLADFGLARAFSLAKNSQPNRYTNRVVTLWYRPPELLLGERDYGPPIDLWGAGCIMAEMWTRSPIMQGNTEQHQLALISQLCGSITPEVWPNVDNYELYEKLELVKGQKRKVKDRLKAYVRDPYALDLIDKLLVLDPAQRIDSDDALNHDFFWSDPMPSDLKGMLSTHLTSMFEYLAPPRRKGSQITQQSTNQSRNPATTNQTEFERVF
Sequence of CDK9/Cyclin K (O75909 whole entry partner): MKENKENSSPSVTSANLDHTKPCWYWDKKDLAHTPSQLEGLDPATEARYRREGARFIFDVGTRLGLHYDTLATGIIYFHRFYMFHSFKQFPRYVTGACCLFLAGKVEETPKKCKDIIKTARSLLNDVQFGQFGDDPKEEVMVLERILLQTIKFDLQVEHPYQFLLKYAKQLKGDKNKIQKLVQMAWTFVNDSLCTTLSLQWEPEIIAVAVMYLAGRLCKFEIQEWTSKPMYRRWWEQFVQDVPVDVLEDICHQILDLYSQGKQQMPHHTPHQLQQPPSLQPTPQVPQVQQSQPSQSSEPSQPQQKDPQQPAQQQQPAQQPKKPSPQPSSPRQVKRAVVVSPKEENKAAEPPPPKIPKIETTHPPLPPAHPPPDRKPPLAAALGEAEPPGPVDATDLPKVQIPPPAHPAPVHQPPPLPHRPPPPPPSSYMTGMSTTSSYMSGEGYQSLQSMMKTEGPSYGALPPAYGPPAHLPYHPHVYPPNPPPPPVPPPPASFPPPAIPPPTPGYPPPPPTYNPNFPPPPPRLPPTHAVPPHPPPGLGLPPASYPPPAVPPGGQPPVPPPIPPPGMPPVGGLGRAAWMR
Sequence of CDK7/Cyclin H/MNAT1 (P50613 whole entry): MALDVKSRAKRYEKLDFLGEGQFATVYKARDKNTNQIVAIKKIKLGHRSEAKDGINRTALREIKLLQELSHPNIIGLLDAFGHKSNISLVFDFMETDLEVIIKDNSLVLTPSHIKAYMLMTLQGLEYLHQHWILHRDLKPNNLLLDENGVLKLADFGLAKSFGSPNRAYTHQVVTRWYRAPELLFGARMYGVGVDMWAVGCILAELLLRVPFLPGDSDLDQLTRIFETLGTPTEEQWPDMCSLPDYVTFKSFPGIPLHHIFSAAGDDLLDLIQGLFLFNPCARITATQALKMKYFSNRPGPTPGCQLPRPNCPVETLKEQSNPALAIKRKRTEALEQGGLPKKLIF
Sequence of CDK7/Cyclin H/MNAT1 (P51946 whole entry partner): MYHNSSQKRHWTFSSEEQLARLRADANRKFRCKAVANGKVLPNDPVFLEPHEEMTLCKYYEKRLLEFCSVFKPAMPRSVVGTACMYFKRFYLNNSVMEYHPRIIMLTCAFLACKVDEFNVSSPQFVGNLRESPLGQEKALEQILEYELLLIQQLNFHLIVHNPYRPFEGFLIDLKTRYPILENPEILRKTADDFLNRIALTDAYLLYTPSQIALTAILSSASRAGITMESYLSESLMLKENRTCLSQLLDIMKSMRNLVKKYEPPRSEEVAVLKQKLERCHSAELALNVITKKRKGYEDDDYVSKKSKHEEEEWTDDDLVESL
Sequence of CDK7/Cyclin H/MNAT1 (P51948 whole entry partner): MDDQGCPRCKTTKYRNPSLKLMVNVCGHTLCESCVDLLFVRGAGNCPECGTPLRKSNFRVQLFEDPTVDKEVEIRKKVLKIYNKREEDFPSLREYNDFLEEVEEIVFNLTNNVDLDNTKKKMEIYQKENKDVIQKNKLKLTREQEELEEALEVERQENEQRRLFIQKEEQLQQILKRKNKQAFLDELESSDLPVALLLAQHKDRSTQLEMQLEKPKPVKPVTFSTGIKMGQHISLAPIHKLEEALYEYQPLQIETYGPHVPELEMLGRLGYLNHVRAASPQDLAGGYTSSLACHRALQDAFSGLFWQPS

SMILES	IC50 [1] [nM]	CC50 at 72 h [2] [nM]	IC50 [3, 8] [nM]	IC50 [4, 9] [nM]	IC50 [5, 10] [nM]	Papp at 20 h, 10 μmol [6] [×10⁻⁶ cm/s]	IC50 [7] [nM]	IC50 ([3]; mean of multiple measurement series, ATP 50 μM, read-out: CDK9/Cyclin K IC50) [nM]	IC50 ([4]; mean of multiple measurement series, ATP 50 μM, read-out: CDK2/Cyclin A IC50) [nM]	IC50 ([5]; mean of multiple measurement series, ATP 10 μM, read-out: CDK7/Cyclin H/MNAT1 IC50) [nM]
Cc1ccc(Nc2nc(N[C@H]3CCCNC3)ncc2C(F)(F)F)c(P(C)(C)=O)c1 [CDK7_904, N4-[2-(dimethylphos-phoryl)-4-methylphenyl]-N2-[(3S)-piperidin-3-yl]-5-(trifluoromethyl) pyrimidine-2,4-diamine]	100 to 1000	> 2000	5 to 50	> 200	< 5	< 1	–	–	–	–
CP(C)(=O)c1ccccc1Nc1nc(N[C@H]2CCCNC2)ncc1C(F)(F)F [CDK7_735, N4-[2-(dimethylphos-phoryl)phenyl]-N2-[(3S)-piperidin-3-yl]-5-(trifluoromethyl) pyrimidine-2,4-diamine]	100 to 1000	> 2000	5 to 50	> 200	< 5	< 1	–	–	–	–
COCCN1CCCc2c(-c3nc(N[C@H]4CCC(C)(C)NC4)ncc3C(F)(F)F)c[nH]c2C1=O [CDK7_1268, 3-(2-{[(3S)-6,6-dimethylpiperidin-3-yl]amino}-5-(trifluoromethyl)py-rimidin-4-yl)-7-(2-methoxyethyl)-1H,4H,5H,6H,7H, 8H-pyrrolo[2,3-c]azepin-8-one]	10 to 100	> 2000	> 200	> 200	–	–	10 to 100	–	–	–
CN(C)C(=O)c1cc(-c2nc(N[C@H]3CCCNC3)ncc2C(F)(F)F)c[nH]1 [CDK7_536, N,N-dimethyl-4-(2-{[(3S)-piperidin-3-yl]amino}-5-(trifluoromethyl)pyrimidin-4-yl)-1H-pyrrole-2-carboxamide]	10 to 100	500 to 2000	5 to 50	> 200	< 5	1 to 5	–	–	–	–
FC(F)(F)c1cnc(N[C@H]2CCCNC2)nc1-c1c[nH]c(-c2ncccn2)c1 [CDK7_1062, N-[(3S)-piperidin-3-yl]-4-[5-(pyrimidin-2-yl)-1H-pyrrol-3-yl]-5-(trifluoromethyl)py-rimidin-2-amine]	10 to 100	100 to 500	5 to 50	> 200	< 5	–	10 to 100	–	–	–
Cn1cc(-n2ccc3c(-c4nc(N[C@H]5CCC6(CC6)NC5)ncc4C(F)(F)F)c[nH]c3c2=O)cn1 [CDK7_1199, 3-(2-{[(6S)-4-azaspiro[2.5]octan-6-yl]amino}-5-(trifluoromethyl)py-rimidin-4-yl)-6-(1-methyl-1H-pyrazol-4-yl)-1H,6H,7H-pyrrolo[2,3-c]pyridin-7-one]	< 10	–	> 200	> 200	< 5	–	< 10	843	3390	< 5
Nc1ccccc1Oc1nc(N[C@H]2CCCNC2)ncc1C(F)(F)F [CDK7_548, 4-(2-aminophenoxy)-N-[(3S)-piperidin-3-yl]-5-(trifluoromethyl) pyrimidin-2-amine]	10 to 100	500 to 2000	5 to 50	> 200	5 to 50	1 to 5	–	–	–	–
CCOC(=O)c1cc(-c2nc(N[C@H]3CCCNC3)ncc2C(F)(F)F)c[nH]1 [CDK7_1020, ethyl 4-(2-{[(3S)-piperidin-3-yl]amino}-5-(trifluoromethyl)py-rimidin-4-yl)-1H-pyrrole-2-carboxylate]	10 to 100	> 2000	5 to 50	> 200	< 5	–	10 to 100	–	–	–
FC(F)(F)c1cnc(N[C@H]2CCCNC2)nc1-c1c[nH]c(-c2ccccc2)c1 [CDK7_533, 4-(5-phenyl-1H-pyrrol-3-yl)-N-[(3S)-piperidin-3-yl]-5-(trifluoromethyl) pyrimidin-2-amine]	100 to 1000	500 to 2000	> 200	> 200	50 to 200	< 1	–	–	–	–
CN1Cc2c(-c3nc(N[C@H]4CCCNC4)ncc3C(F)(F)F)c[nH]c2C1=O [CDK7_944, 5-methyl-3-(2-{[(3S)-piperidin-3-yl]amino}-5-(trifluoromethyl)pyrimidin-4-yl)-1H,4H,5H,6H-pyrrolo[2,3-c]pyrrol-6-one]	< 10	< 100	5 to 50	> 200	< 5	< 1	–	–	–	–
O=C(NC1CC1)c1cc(-c2nc(N[C@H]3CCCNC3)ncc2C(F)(F)F)c[nH]1 [CDK7_951, N-cyclopropyl-4-(2-{[(3S)-piperidin-3-yl]amino}-5-(trifluoromethyl)pyrimidin-4-yl)-1H-pyrrole-2-carboxamide]	10 to 100	500 to 2000	5 to 50	> 200	< 5	< 1	–	–	–	–
Cn1cc(NC(=O)c2cc(-c3nc(N[C@H]4CCCNC4)ncc3C(F)(F)F)c[nH]2)cn1 [CDK7_835, N-(1-methyl-1H-pyrazol-4-yl)-4-(2-{[(3S)-piperidin-3-yl]amino}-5-(trifluoromethyl)pyrimidin-4-yl)-1H-pyrrole-2-carboxamide]	100 to 1000	> 2000	5 to 50	> 200	5 to 50	< 1	–	–	–	–
